Test results published in patent publication US20210300924A1, “5-[6-[[3-(4,5,6,7-TETRAHYDROPYRAZOLO[4,3-C]PYRIDIN-1-YL)AZETIDIN-1-YL]METHYL]MORPHOLIN-4-YL]QUINOLINE-8-CARBONITRILE DERIVATIVES AND SIMILAR COMPOUNDS AS TLR7-9 ANTAGONISTS FOR TREATING SYSTEMIC LUPUS ERYTHEMATOSUS” (Hoffmann-La Roche Inc., priority 2018, published 2021).
Where two headings read alike, the source gives them in different places.

Assays:
TLR9 [1] = target: T1, TLR9 (Homo sapiens, UniProt Q9NR96); parameters: host or cells: HEK cells; details: data disclosed in US20150105370; read-out: HEK/hTLR9 IC50; cited from earlier work
T1 sequence (Q9NR96 26-1032): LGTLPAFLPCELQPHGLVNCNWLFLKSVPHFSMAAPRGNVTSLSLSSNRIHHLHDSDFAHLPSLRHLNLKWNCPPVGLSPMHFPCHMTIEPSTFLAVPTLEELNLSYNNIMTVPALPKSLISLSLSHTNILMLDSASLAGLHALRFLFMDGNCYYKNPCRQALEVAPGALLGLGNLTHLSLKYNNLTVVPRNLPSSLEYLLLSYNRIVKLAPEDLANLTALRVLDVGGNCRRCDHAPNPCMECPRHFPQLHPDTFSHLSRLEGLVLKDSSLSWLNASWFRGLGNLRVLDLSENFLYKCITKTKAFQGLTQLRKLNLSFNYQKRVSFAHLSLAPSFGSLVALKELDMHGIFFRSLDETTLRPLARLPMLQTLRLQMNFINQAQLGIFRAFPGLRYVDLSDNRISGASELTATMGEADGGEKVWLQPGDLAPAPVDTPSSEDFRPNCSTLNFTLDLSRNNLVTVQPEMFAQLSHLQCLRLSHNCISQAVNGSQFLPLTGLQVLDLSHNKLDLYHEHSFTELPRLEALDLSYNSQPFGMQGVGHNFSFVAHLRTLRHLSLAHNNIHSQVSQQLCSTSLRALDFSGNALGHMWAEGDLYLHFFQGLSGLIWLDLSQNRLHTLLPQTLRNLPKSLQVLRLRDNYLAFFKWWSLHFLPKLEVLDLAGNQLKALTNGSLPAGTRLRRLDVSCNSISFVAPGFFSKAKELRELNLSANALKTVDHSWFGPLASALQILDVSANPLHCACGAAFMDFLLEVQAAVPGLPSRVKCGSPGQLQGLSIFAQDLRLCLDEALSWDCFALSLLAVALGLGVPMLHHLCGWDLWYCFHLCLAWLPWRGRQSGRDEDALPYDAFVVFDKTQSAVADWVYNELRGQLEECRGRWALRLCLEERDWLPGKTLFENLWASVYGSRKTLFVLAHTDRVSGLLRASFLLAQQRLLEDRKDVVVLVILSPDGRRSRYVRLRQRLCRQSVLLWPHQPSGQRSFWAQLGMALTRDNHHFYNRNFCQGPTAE

hERG channel = target: T2, hERG channel (Homo sapiens, UniProt Q12809); assay: hERG channel inhibition assay (patch-clamp, CHOhERG cells); assay type: cell-based; details: for safety window (hERG IC20/TLR7/8/9 IC50) compared to the compounds of this invention: in words; for hERG IC20/TLR7 IC50 / hERG IC20/TLR9 IC50 / hERG IC20/TLR8 IC50: safety ratio, >30 suggests sufficient window
T2 construct: expressed in transfected cells; host or cells: CHO (Chinese hamster ovary), CHOhERG
Method: hERG Channel Inhibition Assay:
The hERG K^+ channels were cloned in humans and stably expressed in a CHO (Chinese hamster ovary) cell line. CHOhERG cells were used for patch-clamp (voltage-clamp, whole-cell) experiments. Cells were stimulated by a voltage pattern to activate hERG channels and conduct hERG currents (rapid delayed outward rectifier potassium current of the hERG channel). After the cells were stabilized for a few minutes, the amplitude and kinetics of IKhERG were recorded at a stimulation frequency of 0.1 Hz (6 bpm). Thereafter, the test compound was added to the preparation at increasing concentrations. For each concentration, an attempt was made to reach a steady-state effect, usually, this was achieved within 3-10 min at which time the next highest concentration was applied. The amplitude and kinetics of IKhERG are recorded in each concentration of the drug which were compared to the control values (taken as 100%). (references: Redfern W S, Carlsson L, Davis A S, Lynch W G, MacKenzie I, Palethorpe S, Siegl P K, Strang I, Sullivan A T, Wallis R, Camm A J, Hammond T G. 2003; Relationships between preclinical cardiac electrophysiology, clinical QT interval prolongation and torsade de pointes for a broad range of drugs: evidence for a provisional safety margin in drug development. Cardiovasc. Res. 58:32-45, Sanguinetti MC, Tristani-Firouzi M. 2006; hERG potassium channels and cardiac arrhythmia. Nature 440:463-469, Webster R, Leishman D, Walker D. 2002; Towards a drug concentration effect relationship for QT prolongation and torsades de pointes. Curr. Opin. Drug Discov. Devel. 5:116-26).

TLR9 [2] = target: T1, TLR9; assay: Human PBMC cell-based assay; parameters: endogenous in cells; host or cells: human PBMC from healthy donor whole blood; details: CpG ODN 2216 stimulation, overnight, cytokine readout, read-out: hPBMC/TLR9 IC50
Excerpt: Human PBMC Cell-Based Assay
Unlike the HEK reporter cell lines, human peripheral blood mononuclear cell (PBMC) represents primary human immune cells in blood mainly consisting of lymphocytes, monocytes, and dendritic cells. These cells express TLR7, TLR8, or TLR9, and therefore are natural responders to respective ligand stimulation. Upon activation of these TLRs, PBMCs secrete similar cytokines and chemokines in vitro and in vivo, and therefore the in vitro potency of a TLR7/8/9 antagonist in human PBMC is readily translatable to its pharmacodynamics response in vivo.
Human peripheral blood mononuclear cells (PBMC) were isolated from freshly-drawn lithium-heparinized (Lithium Heparin Plus blood Collection tube, BD Vacutainer®) healthy donor whole blood by density gradient (Ficoll-Paque™ PLUS, GE Healthcare life Sciences). Briefly, […] was diluted with 25 mL PBS (without Ca^2+, Mg^2+) in a 50 mL conical tube with porous barrier (Leucosep tube, Greiner bio-one), where 15.5 mL Ficoll-Paque was under laid after spinning. Tubes were centrifuged for 20 minutes at 800×g (1946 rpm) with the brake in the off position, and PBMC were collected from the buffy coat. Cells were then washed twice in PBS, and red blood cells were lysed by suspension in 2 mL (Red Blood Cell Lysis Buffer, Alfa Aesar) for 5-10 minutes at room temperature. After a final wash in PBS, PBMC were resuspended at a final concentration of 2×10^6 cells/mL in RPMI-1640 media with GlutaMAX™ (Gibco) supplemented with 10% Fetal Bovine Serum (Sigma) and plated at 150 μL/well (3×10^5 cells/well) in tissue culture treated round bottom 96-well plates (Corning Incorporated). Antagonist compounds (compounds of this invention) solubilized and serial diluted in 100% DMSO were added in duplicate to cells to yield a final concentration of 1% DMSO (v/v). PBMC were incubated with antagonist compounds for 30 minutes at 37° C., 5% CO2 before adding various TLR agonist reagents in 48 μL complete media per well as follows (final concentrations indicated): CpG ODN 2216 (InvivoGen) at […] for TLR9, ORN 06/LyoVec (InvivoGen) at 1 μg/mL for TLR8 and R848 (InvivoGen) at 1 μg/mL for TLR7 and TLR8. PBMC were incubated overnight at 37° C. with 5% CO2. Cell culture supernatants were collected, and levels of various human cytokines were assessed by Luminex assay (ProcartaPlex™ Multiplex Immunoassay, Invitrogen) or ELISA procedure according to the manufacturer's recommended protocol (eBioscience, ThermoFisher Scientific). Viability of the cells was also checked with Cell Viability Assay (CellTiter Glo® Luminescent Cell Viability Assay, Promega).

T2 sequence (Q12809 whole entry): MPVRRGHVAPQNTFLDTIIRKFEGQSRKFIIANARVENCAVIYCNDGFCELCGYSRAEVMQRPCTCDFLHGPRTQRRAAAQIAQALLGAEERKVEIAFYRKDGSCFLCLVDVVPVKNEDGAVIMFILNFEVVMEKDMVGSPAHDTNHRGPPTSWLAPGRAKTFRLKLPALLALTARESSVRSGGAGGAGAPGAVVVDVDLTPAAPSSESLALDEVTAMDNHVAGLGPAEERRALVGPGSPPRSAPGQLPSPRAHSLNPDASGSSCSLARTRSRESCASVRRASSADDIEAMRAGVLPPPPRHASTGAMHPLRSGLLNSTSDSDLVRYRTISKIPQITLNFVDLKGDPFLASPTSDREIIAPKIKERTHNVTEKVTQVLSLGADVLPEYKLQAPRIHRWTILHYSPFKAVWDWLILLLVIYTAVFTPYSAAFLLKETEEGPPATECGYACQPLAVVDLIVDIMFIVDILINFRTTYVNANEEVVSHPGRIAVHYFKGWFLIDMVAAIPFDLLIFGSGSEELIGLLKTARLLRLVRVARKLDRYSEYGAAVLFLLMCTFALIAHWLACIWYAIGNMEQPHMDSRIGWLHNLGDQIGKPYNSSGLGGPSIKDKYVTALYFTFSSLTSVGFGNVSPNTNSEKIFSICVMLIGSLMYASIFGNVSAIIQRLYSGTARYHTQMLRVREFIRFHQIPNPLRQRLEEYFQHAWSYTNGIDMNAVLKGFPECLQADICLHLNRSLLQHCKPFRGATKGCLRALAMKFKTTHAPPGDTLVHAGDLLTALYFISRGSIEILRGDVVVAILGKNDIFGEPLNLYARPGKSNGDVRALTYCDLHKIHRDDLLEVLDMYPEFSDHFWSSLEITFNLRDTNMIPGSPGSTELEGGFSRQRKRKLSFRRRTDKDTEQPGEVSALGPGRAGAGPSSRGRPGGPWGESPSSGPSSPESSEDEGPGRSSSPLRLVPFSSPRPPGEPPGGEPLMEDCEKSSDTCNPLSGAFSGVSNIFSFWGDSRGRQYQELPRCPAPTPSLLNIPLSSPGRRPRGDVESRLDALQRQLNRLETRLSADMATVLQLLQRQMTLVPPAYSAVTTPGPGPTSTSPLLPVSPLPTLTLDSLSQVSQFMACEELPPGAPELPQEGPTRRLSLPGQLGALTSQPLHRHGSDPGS

| Structure (SMILES) | IC50 (TLR9 [1]) [nM] | safety window (hERG IC20/TLR7/8/9 IC50) compared to the compounds of this invention (hERG channel) | hERG IC20/TLR7 IC50 (hERG channel) | hERG IC20/TLR9 IC50 (hERG channel) | hERG IC20/TLR8 IC50 (hERG channel) | IC50 (TLR9 [2]) [nM] |
| --- | --- | --- | --- | --- | --- | --- |
| C[C@@H]1CN(c2ccc(C#N)c3ncccc23)C[C@H](CN2CCN(c3ccccc3)CC2)O1 [ER-887258, reference compound] | > 2000 | much narrower safety window | 8.1 | 0.3 |  |  |
| C[C@@H]1CN(c2ccc(C#N)c3ncccc23)C[C@H](CN2CC[C@@H](NC(=O)c3ccccc3)C2)O1 [ER-894544] | > 6200 |  |  |  |  |  |
| C[C@@H]1CN(c2ccc(C#N)c3ncccc23)C[C@H](CN2CCN(c3ccccn3)CC2)O1 [ER-888285, reference compound] | > 2000 | much narrower safety window | 8.4 | 0.5 |  |  |
| Cc1nn(C)cc1S(=O)(=O)NC1CCN(C[C@H]2CN(c3ccc(C#N)c4ncccc34)C[C@@H](C)O2)CC1 [ER-894160] | > 10000 |  |  |  |  |  |
| C[C@@H]1CN(c2ccc(C#N)c3ncccc23)C[C@H](CN2CCN(c3ccc(Cl)cc3)CC2)O1 [Example R2, 5-[(2S,6R)-2-[[4-(4-chlorophenyl)piperazin-1-yl]methyl]-6-methyl-morpholin-4-yl]quinoline-8-carbonitrile, reference compound] |  | much narrower safety window | 1.3 | 0.04 | 0.8 |  |
| COc1ccc(N2CCN(C[C@H]3CN(c4ccc(C#N)c5ncccc45)C[C@@H](C)O3)CC2)cc1 [Example R1, 5-[(2S,6R)-2-[[4-(4-methoxyphenyl)piperazin-1-yl]methyl]-6-methyl-morpholin-4-yl]quinoline-8-carbonitrile, reference compound] |  | much narrower safety window | 9.3 | 0.1 | 6.2 |  |
| C[C@@H]1CN(c2ccc(C#N)c3ncccc23)C[C@H](CN2CCN(c3ccncc3)CC2)O1 [ER-888286, reference compound] | > 2000 | much narrower safety window | 0.3 | 0.2 |  | 1630 |
| C[C@@H]1CN(c2ccc(C#N)c3ncccc23)C[C@H](CN2CC(NS(=O)(=O)c3ccc(F)cc3)C2)O1 [ER-894155] | > 10000 |  |  |  |  |  |
